Measured values taken from PubChem BioAssay (NCI).
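Here, GI50 denotes the concentration required for 50% inhibition of growth. TGI is the concentration that stops growth completely.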

Columns and labels:
Assay in all cases: DTP human tumour cell line panel, 384-well format
NCI-H522 lung = test system: NCI-H522 lung
SK-MEL-5 melanoma = test system: SK-MEL-5 melanoma
LOX IMVI melanoma = test system: LOX IMVI melanoma
HCT-15 colon = test system: HCT-15 colon
K-562 leukemia = test system: K-562 leukemia
ACHN renal = test system: ACHN renal
KM12 colon = test system: KM12 colon
HS 578T breast = test system: HS 578T breast
MDA-MB-231 breast = test system: MDA-MB-231 breast
COLO 205 colon = test system: COLO 205 colon
OVCAR-4 ovarian = test system: OVCAR-4 ovarian
HOP-62 NSCLC = test system: HOP-62 NSCLC
OVCAR-3 ovarian = test system: OVCAR-3 ovarian
HOP-92 NSCLC = test system: HOP-92 NSCLC
SK-OV-3 ovarian = test system: SK-OV-3 ovarian
RPMI-8226 leukemia = test system: RPMI-8226 leukemia
MALME-3M melanoma = test system: MALME-3M melanoma
SW-620 colon = test system: SW-620 colon
T-47D breast = test system: T-47D breast
A549 NSCLC = test system: A549 NSCLC
TK-10 renal = test system: TK-10 renal
SNB-19 CNS = test system: SNB-19 CNS
SF-295 CNS = test system: SF-295 CNS
RXF 393 renal = test system: RXF 393 renal
U251 glioblastoma = test system: U251 glioblastoma
SF-539 CNS = test system: SF-539 CNS
786-0 renal = test system: 786-0 renal
NCI-H460 NSCLC = test system: NCI-H460 NSCLC
SF-268 CNS = test system: SF-268 CNS
PC-3 prostate = test system: PC-3 prostate
A498 renal = test system: A498 renal
NCI-H226 lung = test system: NCI-H226 lung
BT-549 breast = test system: BT-549 breast
SK-MEL-28 melanoma = test system: SK-MEL-28 melanoma
CAKI-1 renal = test system: CAKI-1 renal
IGROV1 ovarian = test system: IGROV1 ovarian
HT29 colon = test system: HT29 colon
UACC-257 melanoma = test system: UACC-257 melanoma
SN12C renal = test system: SN12C renal
MOLT-4 leukemia = test system: MOLT-4 leukemia
MDA-MB-435 melanoma = test system: MDA-MB-435 melanoma
NCI-H322M lung = test system: NCI-H322M lung
UACC-62 melanoma = test system: UACC-62 melanoma
SNB-75 CNS = test system: SNB-75 CNS
HCT-116 colon = test system: HCT-116 colon
NCI-H23 lung = test system: NCI-H23 lung
MDA-MB-468 breast = test system: MDA-MB-468 breast
CCRF-CEM leukemia = test system: CCRF-CEM leukemia
HCC-2998 colon = test system: HCC-2998 colon
NCI/ADR-RES ovarian = test system: NCI/ADR-RES ovarian
HL-60(TB) leukemia = test system: HL-60(TB) leukemia
EKVX NSCLC = test system: EKVX NSCLC
OVCAR-8 ovarian = test system: OVCAR-8 ovarian
DU-145 prostate = test system: DU-145 prostate
UO-31 renal = test system: UO-31 renal
M14 melanoma = test system: M14 melanoma
MCF7 breast = test system: MCF7 breast

## C[C@H](Nc1ccc2c(c1)OCCn1cc(N3C(=O)OC[C@H]3C(F)F)nc1-2)C(N)=O
NCI-H522 lung
  GI50: 19 µM
  TGI: > 100 µM
SK-MEL-5 melanoma
  GI50: 43.4 µM
  TGI: > 100 µM
LOX IMVI melanoma
  GI50: 12.5 µM
  TGI: 43.9 µM
HCT-15 colon
  GI50: 0.73 µM
  TGI: > 100 µM
K-562 leukemia
  GI50: > 100 µM
  TGI: > 100 µM
ACHN renal
  GI50: 15.2 µM
  TGI: > 100 µM
KM12 colon
  GI50: 19.5 µM
  TGI: 54.2 µM
HS 578T breast
  GI50: 6.24 µM
  TGI: 48.4 µM
MDA-MB-231 breast
  GI50: 25.9 µM
  TGI: > 100 µM
COLO 205 colon
  GI50: 0.987 µM
  TGI: > 100 µM
OVCAR-4 ovarian
  GI50: 43.8 µM
  TGI: > 100 µM
HOP-62 NSCLC
  GI50: 34.6 µM
  TGI: > 100 µM
OVCAR-3 ovarian
  GI50: 3.27 µM
  TGI: 21.7 µM
HOP-92 NSCLC
  GI50: 2.2 µM
  TGI: > 100 µM
SK-OV-3 ovarian
  GI50: 0.049 µM
  TGI: > 100 µM
RPMI-8226 leukemia
  GI50: 16.1 µM
  TGI: 31.7 µM
MALME-3M melanoma
  GI50: 5.85 µM
  TGI: > 100 µM
SW-620 colon
  GI50: 95.4 µM
  TGI: > 100 µM
T-47D breast
  GI50: 0.0131 µM
  TGI: 0.0728 µM
A549 NSCLC
  GI50: 12.7 µM
  TGI: > 100 µM
TK-10 renal
  GI50: 4.03 µM
  TGI: > 100 µM
SNB-19 CNS
  GI50: 85.3 µM
  TGI: > 100 µM
SF-295 CNS
  GI50: 14.6 µM
  TGI: > 100 µM
RXF 393 renal
  GI50: 15.9 µM
  TGI: 71.4 µM
U251 glioblastoma
  GI50: 75.8 µM
  TGI: > 100 µM
SF-539 CNS
  GI50: 17.6 µM
  TGI: > 100 µM
786-0 renal
  GI50: 40.5 µM
  TGI: > 100 µM
NCI-H460 NSCLC
  GI50: 0.802 µM
  TGI: > 100 µM
SF-268 CNS
  GI50: 24 µM
  TGI: > 100 µM
PC-3 prostate
  GI50: 3.82 µM
  TGI: > 100 µM
A498 renal
  GI50: 15.2 µM
  TGI: > 100 µM
NCI-H226 lung
  GI50: 38.5 µM
  TGI: > 100 µM
BT-549 breast
  GI50: 14.5 µM
  TGI: > 100 µM
SK-MEL-28 melanoma
  GI50: 7.96 µM
  TGI: > 100 µM
CAKI-1 renal
  GI50: 3.11 µM
  TGI: 46.3 µM
IGROV1 ovarian
  GI50: 0.0195 µM
  TGI: 0.141 µM
HT29 colon
  GI50: 0.289 µM
  TGI: > 100 µM
UACC-257 melanoma
  GI50: > 100 µM
  TGI: > 100 µM
SN12C renal
  GI50: 5.74 µM
  TGI: > 100 µM
MOLT-4 leukemia
  GI50: 1.07 µM
  TGI: 10.6 µM
MDA-MB-435 melanoma
  GI50: 58.1 µM
  TGI: > 100 µM
NCI-H322M lung
  GI50: 2.85 µM
  TGI: 57.3 µM
UACC-62 melanoma
  GI50: 5.64 µM
  TGI: > 100 µM
SNB-75 CNS
  GI50: 3.2 µM
  TGI: > 100 µM
HCT-116 colon
  GI50: 25.9 µM
  TGI: > 100 µM
NCI-H23 lung
  GI50: 21.8 µM
  TGI: > 100 µM
MDA-MB-468 breast
  GI50: 1.57 µM
  TGI: 10.9 µM
CCRF-CEM leukemia
  GI50: 5.71 µM
  TGI: > 100 µM
HCC-2998 colon
  GI50: 5.68 µM
  TGI: > 100 µM
NCI/ADR-RES ovarian
  GI50: > 100 µM
  TGI: > 100 µM
HL-60(TB) leukemia
  GI50: 0.156 µM
  TGI: 3.3 µM
EKVX NSCLC
  GI50: 2.99 µM
  TGI: 46.7 µM
OVCAR-8 ovarian
  GI50: 27 µM
  TGI: > 100 µM
DU-145 prostate
  GI50: 18 µM
  TGI: > 100 µM
UO-31 renal
  GI50: 6.24 µM
  TGI: > 100 µM
M14 melanoma
  GI50: > 100 µM
  TGI: > 100 µM
MCF7 breast
  GI50: 0.039 µM
  TGI: > 100 µM
